Legend:
[1] = target: Synaptic vesicular amine transporter (Rattus norvegicus) (UniProt Q01827); assay: Ratio of Ki for displacement of [3H]DTBZ from VMAT2 in rat whole brain to Ki for inhibition of VMAT2-mediated [3H]DA uptake in rat brain synaptic vesicles; type: tissue-based
[2] = target: T1, Synaptic vesicular amine transporter (Rattus norvegicus, UniProt Q01827); assay: Inhibition of VMAT2-mediated [3H]DA uptake in rat brain synaptic vesicles by liquid scintillation spectrometry; type: tissue-based
[3] = target: T1, Synaptic vesicular amine transporter; assay: Displacement of [3H]DTBZ from VMAT2 in rat whole brain by liquid scintillation spectrometry
[4] = target: Synaptic vesicular amine transporter (Rattus norvegicus) (UniProt Q01827); assay: Displacement of [3H]DTBZ from VMAT2 in rat whole brain relative to quinlobelane

Sequence of Synaptic vesicular amine transporter (Rattus norvegicus) (Q01827 whole entry): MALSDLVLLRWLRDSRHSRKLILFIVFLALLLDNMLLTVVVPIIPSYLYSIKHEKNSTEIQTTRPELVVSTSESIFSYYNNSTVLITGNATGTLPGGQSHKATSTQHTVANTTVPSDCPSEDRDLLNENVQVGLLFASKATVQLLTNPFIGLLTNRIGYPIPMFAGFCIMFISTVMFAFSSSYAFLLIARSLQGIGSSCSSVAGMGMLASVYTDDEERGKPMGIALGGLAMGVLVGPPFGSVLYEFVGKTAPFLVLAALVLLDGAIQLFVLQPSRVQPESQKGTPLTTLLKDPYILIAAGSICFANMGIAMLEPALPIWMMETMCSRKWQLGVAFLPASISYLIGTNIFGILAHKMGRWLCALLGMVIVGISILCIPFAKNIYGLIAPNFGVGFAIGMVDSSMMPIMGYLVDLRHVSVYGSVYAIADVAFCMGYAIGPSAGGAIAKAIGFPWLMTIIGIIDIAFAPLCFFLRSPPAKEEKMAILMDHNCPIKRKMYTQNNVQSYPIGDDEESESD
T1 sequence (Q01827 whole entry): as above

Row | Compound | Ratio Ki [1] | Ki [2] | Ki [3] | Ratio Ki [4]
1 | c1ccc2nc(CC[C@H]3CCC[C@@H](CCc4ccc5ccccc5n4)N3)ccc2c1 | 3 | 57 nM | 293 nM | 9
2 | OC[C@H](O)CN1[C@@H](CCc2ccc3ccccc3n2)CCC[C@H]1CCc1ccc2ccccc2n1 | 3 | 240 nM | 627 nM | 4
3 | c1cnc2ccc(CC[C@H]3CCC[C@@H](CCc4ccc5ncccc5c4)N3)cc2c1 | 3 | 42 nM | 647 nM | 4
4 | c1ccc2c(CC[C@H]3CCC[C@@H](CCc4ccnc5ccccc45)N3)ccnc2c1 |  | 42 nM | 178 nM | 
